One series deals with T1, DNA-PK (Homo sapiens, UniProt P78527).
T1 construct: purchased Invitrogen PR9107A
In words: DNA-PK Assay for Biochemical Enzymatic Inhibition (ADP Glo Kinase assay). Particulars: Table 1. In a few lines: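 Human DNA-PK (25 ng) preincubated 15 min with compounds (ten three-fold dilutions) in HEPES pH 7.5, MgCl2, KCl, calf thymus DNA buffer, then substrate 434.4 μM and ATP 64.4 μM (final) for 60 min at room temperature. ADP-Glo luminescence; percent inhibition fitted by four-parameter regression for IC50.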
For orientation: ADP-Glo first removes unused ATP, then detects ADP through luciferase.

Series [1] concerns the target T2, pDNA-PK ser2056 induction in HCT116 spheroids (Homo sapiens, UniProt P78527).
T2 construct: endogenous in cells; host or cells: HCT116 multicellular tumour spheroids
In words: Multicellular tumour spheroid + radiation, pDNA-PK inhibition, HCT116. The class given is cell-based. The settings on record: 20 Gy. In a few lines: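 EC50 (μM) is concentration halving radiation-induced pDNA-PK ser2056, scored by fluorescent immunostaining of cryosections 2 h after 20 Gy. HCT116 tumour spheroids (~0.5 mm, stirred, 20% O2/5% CO2, 37 °C) exposed to serial dilutions from 10 or 5 μM to 3.5 nM starting 1 h before irradiation.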

A short description of series [2]: Microsomal stability assay, mouse liver microsomes. Particulars: for microsomal CLint at 0.1 uM: male, CD-1, mouse, liver microsomes, pH 7.4, Microsomal Stability Mouse Clint, 0.1 mg/mL microsomes, 0.1 uM compound. (Microsomes from liver hold many membrane-bound enzymes, among them those of drug oxidation.)
Series [3] concerns the target T3, DNA-PK phosphorylation at Serine 2056 (Homo sapiens, UniProt P78527).
T3 construct: host or cells: FaDu
In words: Cellular Assay for Inhibition of DNA-PK Phosphorylation at Serine 2056 (FaDu cells, neocarzinostatin, sandwich ELISA). The class given is cell-based. Particulars: Table 1. The essentials:
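Readout was pSer2056 and total DNA-PK, measured by sandwich ELISA on protein-normalized lysates. Prior to lysis, compound was applied to FaDu cells for 1 h (0.3% DMSO), followed by 2 h of 1 μg/mL neocarzinostatin. IC50 values were fitted from log concentration versus % inhibition normalized to DMSO and NCS controls.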
A general note: An ELISA detects its analyte on a solid surface through an enzyme-linked reagent.

[4] abbreviates: Example 7, spheroid, cell line HCT115 [sic], 20% O2, read-out: EC50 (pDNA-PK inhibition, immunohistochemical endpoint).
Setting [5] is: Example 9 Study 2, 20% O2, read-out: Spheroid Cell line: HCT116 Immunohistochemical endpoint pDNA-PK inhibition EC50.
Setting [6] is: Example 8, spheroid, read-out: Cell line: HCT116 Immunohistochemical endpoint pDNA-PK inhibition EC50.

Each structure is given as a SMILES string. Where two headings read alike, the source gives them in different places.

By IC50 is commonly meant the concentration needed to halve the response being measured. One may read the EC50 as the concentration that produces a half-maximal response. In general, microsomal CLint refers to the rate of metabolic loss divided by the concentration. Read a low microsomal CLint as greater metabolic stability.

In the case of `c1cnnc(N[C@H]2CC[C@@H](Oc3nc(N4CCOCC4)cc4ncccc34)CC2)c1` [Compound 29, N-((1s,4s)-4-((7-morpholino-1,6-naphthyridin-5-yl)oxy)cyclohexyl)pyridazin-3-amine], the IC50 at DNA-PK is < 0.0005 µM; in series [3], < 0.1 µM. Moreover, the EC50 in series [1] (setting [4]) and in series [1] (setting [5]) was 0.5 to 1 µM each time. Besides, in series [2], the “Microsomal Stability (mouse) % rem. 60 min” value is “E (% remaining = 0-25%)”. Also, the microsomal CLint at 0.1 uM in series [2] was > 116 µL/min/mg.
Take `O=C(N[C@H]1CC[C@@H](Oc2nc(N3CCOCC3)cc3ncccc23)CC1)c1ccccn1` [Compound 114, N-((1s,4s)-4-((7-morpholino-1,6-naphthyridin-5-yl)oxy)cyclohexyl)picolinamide]: the IC50 at DNA-PK is 0.0005 to 0.001 µM; in series [3] it was 0.1 to 1 µM. Also, the concentration for a half-maximal effect (EC50) in series [1] (setting [4]) and in series [1] (setting [5]) was 1 to 10 µM each time. Besides, in series [2], the “Microsomal Stability (mouse) % rem. 60 min” value is listed as “E (% remaining = 0-25%)”. For the same compound, the microsomal CLint at 0.1 uM in series [2] was > 116 µL/min/mg.
Take `c1cncc(N[C@H]2CC[C@@H](Oc3nc(N4CCOCC4)cc4ncccc34)CC2)c1` [Compound 26, N-((1s,4s)-4-((7-morpholino-1,6-naphthyridin-5-yl)oxy)cyclohexyl)pyridin-3-amine]: the IC50 was in the range of 0.0005 to 0.001 µM at DNA-PK and 0.1 to 1 µM in series [3]. Moreover, the EC50 in series [1] (setting [4]), in series [1] (setting [6]) and in series [1] (setting [5]) was 1 to 10 µM each time. Also, the “Microsomal Stability (mouse) % rem. 60 min” value in series [2] is listed as “E (% remaining = 0-25%)”. The microsomal CLint at 0.1 uM in series [2] was > 116 µL/min/mg.
In the case of `Cc1cnc(C(=O)N[C@H]2CC[C@@H](Oc3nc(N4CCOCC4)cc4ncccc34)CC2)nc1` [Compound 128, 5-methyl-N-((1s,4s)-4-((7-morpholino-1,6-naphthyridin-5-yl)oxy)cyclohexyl)pyrimidine-2-carboxamide], the values for the IC50 (at DNA-PK; in series [3]) were 0.0005 to 0.001 µM and 0.1 to 1 µM, respectively. Moreover, the EC50 in series [1] (setting [4]) and in series [1] (setting [5]) was 1 to 10 µM each time. Besides, in series [2], the “Microsomal Stability (mouse) % rem. 60 min” value was “F (% remaining = 25-50%)”. In series [2], the microsomal CLint at 0.1 uM is > 116 µL/min/mg.
With `COc1cnc(N[C@H]2CC[C@@H](Oc3nc(N4CCOCC4)cc4ncccc34)CC2)nc1` [Compound 20c, 5-Methoxy-N-((1s,4s)-4-((7-morpholino-1,6-naphthyridin-5-yl)oxy)cyclohexyl)pyrimidin-2-amine], the half-inhibitory concentration (IC50) was 0.001 to 0.01 µM on DNA-PK and < 0.1 µM in series [3]. Further, the half-maximal effective concentration (EC50) in series [1] (setting [4]), in series [1] (setting [6]) and in series [1] (setting [5]) was 0.5 to 1 µM each time. Moreover, the “Microsomal Stability (mouse) % rem. 60 min” value in series [2] is listed as “E (% remaining = 0-25%)”. In addition, the intrinsic clearance (microsomal CLint) at 0.1 uM in series [2] was > 116 µL/min/mg.
With `c1cnc2cc(N3CCOCC3)nc(O[C@H]3CC[C@@H](n4ncnn4)CC3)c2c1` [Compound 17m, 4-(5-(((1s,4s)-4-(2H-tetrazol-2-yl)cyclohexyl)oxy)-1,6-naphthyridin-7-yl)morpholine], the IC50 on DNA-PK fell in the range of 0.001 to 0.01 µM; in series [3], 0.1 to 1 µM. In addition, the EC50 in series [1] (setting [4]), in series [1] (setting [6]) and in series [1] (setting [5]) was 1 to 10 µM in each case. The “Microsomal Stability (mouse) % rem. 60 min” value in series [2] was “E (% remaining = 0-25%)”. Further, in series [2], the microsomal CLint at 0.1 uM was > 116 µL/min/mg.
`O=C(N[C@H]1CC[C@@H](Oc2nc(N3CCOCC3)cc3ncccc23)CC1)c1ncc(Cl)cn1` [Compound 124, 5-chloro-N-((1s,4s)-4-((7-morpholino-1,6-naphthyridin-5-yl)oxy)cyclohexyl)pyrimidine-2-carboxamide]: the IC50 at DNA-PK fell in the range of 0.0005 to 0.001 µM; in series [3], 0.1 to 1 µM. The concentration for a half-maximal effect (EC50) in series [1] (setting [4]) and in series [1] (setting [5]) was 1 to 10 µM in each case. Besides, the “Microsomal Stability (mouse) % rem. 60 min” value in series [2] is “F (% remaining = 25-50%)”. The microsomal CLint at 0.1 uM in series [2] was > 116 µL/min/mg.
Regarding `Nc1cnc2cc(N3CCOCC3)nc(O[C@H]3CC[C@@H](Nc4ncccn4)CC3)c2c1` [Compound 184, 7-morpholino-5-(((1s,4s)-4-(pyrimidin-2-ylamino)cyclohexyl)oxy)-1,6-naphthyridin-3-amine], the IC50 on DNA-PK is < 0.0005 µM; in series [3], < 0.1 µM. Further, the EC50 in series [1] (setting [4]) and in series [1] (setting [5]) was 1 to 10 µM throughout. For the same compound, in series [2], the “Microsomal Stability (mouse) % rem. 60 min” value was “E (% remaining = 0-25%)”. Moreover, in series [2], the intrinsic clearance (microsomal CLint) at 0.1 uM is > 116 µL/min/mg.
For `O=C(N[C@H]1CC[C@@H](Oc2nc(N3CCOCC3)cc3ncccc23)CC1)c1scnc1Cl` [Compound 139, 4-chloro-N-((1s,4s)-4-((7-morpholino-1,6-naphthyridin-5-yl)oxy)cyclohexyl)thiazole-5-carboxamide], the IC50 at DNA-PK fell in the range of 0.001 to 0.01 µM; in series [3], 0.1 to 1 µM. Moreover, the EC50 in series [1] (setting [4]) and in series [1] (setting [5]) was 10 to 100 µM throughout. For the same compound, in series [2], the “Microsomal Stability (mouse) % rem. 60 min” value is recorded as “G (% remaining = 50-75%)”. Further, the intrinsic metabolic clearance (microsomal CLint) at 0.1 uM in series [2] is < 116 µL/min/mg.
For `O=C(N[C@H]1CC[C@@H](Oc2nc(N3CCOCC3)cc3ncccc23)CC1)c1cnccn1` [Compound 119, N-((1s,4s)-4-((7-morpholino-1,6-naphthyridin-5-yl)oxy)cyclohexyl)pyrazine-2-carboxamide], the values for the IC50 (at DNA-PK; in series [3]) were 0.0005 to 0.001 µM and 0.1 to 1 µM, respectively. Also, the EC50 in series [1] (setting [4]) and in series [1] (setting [5]) was 1 to 10 µM throughout. For the same compound, the “Microsomal Stability (mouse) % rem. 60 min” value in series [2] was “E (% remaining = 0-25%)”. In addition, the microsomal CLint at 0.1 uM in series [2] is > 116 µL/min/mg.
As to `O=C(N[C@H]1CC[C@@H](Oc2nc(N3CCOCC3)cc3ncccc23)CC1)n1cccn1` [Compound 136, N-((1s,4s)-4-((7-morpholino-1,6-naphthyridin-5-yl)oxy)cyclohexyl)-1H-pyrazole-1-carboxamide], the IC50 is 0.0005 to 0.001 µM at DNA-PK and 0.1 to 1 µM in series [3]. For the same compound, the EC50 in series [1] (setting [4]) and in series [1] (setting [5]) was 1 to 10 µM in each case. The “Microsomal Stability (mouse) % rem. 60 min” value in series [2] was “E (% remaining = 0-25%)”. Moreover, the microsomal CLint at 0.1 uM in series [2] was > 116 µL/min/mg.
As to `O=C(N[C@H]1CC[C@@H](Oc2nc(N3CCOCC3)cc3ncccc23)CC1)C1(O)CC1` [Compound 109, 1-Hydroxy-N-((1s,4s)-4-((7-morpholino-1,6-naphthyridin-5-yl)oxy)cyclohexyl)cyclopropane-1-carboxamide], the IC50 was in the range of 0.001 to 0.01 µM at DNA-PK and 0.1 to 1 µM in series [3]. The EC50 in series [1] (setting [4]), in series [1] (setting [6]) and in series [1] (setting [5]) was 10 to 100 µM throughout. Also, the “Microsomal Stability (mouse) % rem. 60 min” value in series [2] is given as “E (% remaining = 0-25%)”. In series [2], the microsomal CLint at 0.1 uM is > 116 µL/min/mg.
Regarding `Cc1ccnc(C(=O)N[C@H]2CC[C@@H](Oc3nc(N4CCOCC4)cc4ncccc34)CC2)n1` [Compound 127], the values for the IC50 (at DNA-PK; in series [3]) were 0.0005 to 0.001 µM and 0.1 to 1 µM, respectively. Besides, the EC50 in series [1] (setting [4]) and in series [1] (setting [5]) was 1 to 10 µM in each case. In series [2], the “Microsomal Stability (mouse) % rem. 60 min” value is on record as “F (% remaining = 25-50%)”. For the same compound, the intrinsic metabolic clearance (microsomal CLint) at 0.1 uM in series [2] was > 116 µL/min/mg.
With `Brc1cnc2cc(N3CCOCC3)nc(O[C@H]3CC[C@@H](Nc4ncccn4)CC3)c2c1` [Compound 18a, N-((1s,4s)-4-((3-Bromo-7-morpholino-1,6-naphthyridin-5-yl)oxy)cyclohexyl)pyrimidin-2-amine], the values for the IC50 (on DNA-PK; in series [3]) were 0.001 to 0.01 µM and 0.1 to 1 µM, respectively. For the same compound, the EC50 in series [1] (setting [4]), in series [1] (setting [6]) and in series [1] (setting [5]) was 1 to 10 µM throughout. Also, the “Microsomal Stability (mouse) % rem. 60 min” value in series [2] is on record as “E (% remaining = 0-25%)”. Further, in series [2], the microsomal CLint at 0.1 uM was > 116 µL/min/mg.

Values taken from patent US20240246960A1 (adMare Therapeutics Society, priority 2021, published 2024).
